Test results as given in PMC7011974, “Benzimidazole derivatives endowed with potent antileishmanial activity” (Journal of Enzyme Inhibition and Medicinal Chemistry, 2017).
Where two headings read alike, the source gives them in different places.

Assays:
[1] = tested on: L. tropica promastigotes; assay: Antileishmanial activity on L. tropica promastigotes (MTT); assay type: cell-based, Leishmania tropica; settings: for IC50: Leishmania tropica, 72 h, read-out: IC50 (µM) L. tropica; for Antileishmanial activity in words: promastigotes of L. tropica and/or L. infantum
[2] = tested on: monkey kidney (Vero76) cells; assay: Cytotoxicity on Vero-76 cells (crystal violet)
[3] = Cytotoxicity on Vero-76 cells (crystal violet); settings: monkey, Vero-76 cells
[4] = tested on: L. infantum promastigotes; assay: Antileishmanial activity on L. infantum promastigotes (MTT); assay type: cell-based, Leishmania infantum; settings: for IC50: Leishmania infantum, 72 h, read-out: IC50 (µM) L. infantum; for Fold more potent than miltefosine against L. infantum, taking the lowest literature IC50 (15 μM): miltefosine IC50 15 μM from literature
[5] = tested on: human microvascular endothelial cell line (HMEC-1); assay: Cytotoxicity on HMEC-1 cells (MTT); assay type: cell-based; settings: for IC50: Homo sapiens, cytotoxicity, HMEC-1 cells, MTT; for Selectivity index (SI) range versus HMEC cells: range over L. tropica and L. infantum; for SI L. infantum (IC50 HMEC-1/IC50 L. infantum) / SI L. tropica (IC50 HMEC-1/IC50 L. tropica): selectivity index
[6] = tested on: intramacrophagic amastigote stage of L. infantum; assay: In vitro intracellular amastigote susceptibility assay in THP-1 macrophages; assay type: cell-based, Leishmania infantum
Procedure: (b) In vitro intracellular amastigote susceptibility assays. […] Cell monolayers were then washed and incubated with compounds for 72 h. Slides were fixed with methanol and stained with Giemsa. The percentage of infected macrophages in treated and non-treated cells was determined by light microscopy.

[7] = in vitro; settings: monkey
[8] = tested on: promastigote stage of L. infantum; settings: read-out: IC50 of miltefosine versus promastigote stage of L. infantum, literature, cited from earlier work
[9] = promastigotes, MTT, starred values mean of two experiments
[10] = fold potency versus miltefosine
[11] = percent of amphotericin B potency, calculated for each experiment

Row | IC50 [1, 9] | IC50 amph. B ×100/IC50 compd., L. tropica [1, 11] | melting point | IC50 ([4]; promastigotes, MTT) | IC50 amph. B ×100/IC50 compd., L. infantum [4, 11] | SMILES | Ratio IC50 miltef./IC50 compd., L. tropica [1, 10] | SI L. infantum (IC50 Vero76/IC50 L. infantum) ([2]; selectivity index, Vero76) | SI L. tropica (IC50 Vero76/IC50 L. tropica) ([2]; selectivity index, Vero76) | IC50 [3] | IC50 [5] | SI L. infantum (IC50 HMEC-1/IC50 L. infantum) [5] | SI L. tropica (IC50 HMEC-1/IC50 L. tropica) [5] | Ratio IC50 miltef./IC50 compd., L. infantum [4, 10] | other results
1 | > 11.9 µM | – | 60.7 to 61.8 °C | > 11.9 µM | – | CCCCCCCCCCCCCCCc1nc2ccccc2n1Cc1ccccc1 [Compound 13, 1-Benzyl-2-pentadecyl-1H-benzimidazole] | – | – | – | – | > 47 µM | – | – | – | Antileishmanial activity in words [1]: inactive
2 | 0.49 µM | 16.7 | 215.7 to 219.3 °C | 0.64 ± 0.01 µM | 24.4 | CCCCCCCCCCCCCCCc1n(C)c2ccccc2[n+]1Cc1ccccc1.[Cl-] [Compound 14, 3-Benzyl-1-methyl-2-pentadecyl-1 H-benzimidazol-3-ium chloride] | 88.3 | – | – | – | 0.91 ± 0.19 µM | 1.42 | 1.86 | 48.8 | –
3 | 29.6 ± 0.3 µM | 0.60 | – | > 55 µM | – | COc1ccc(-c2nc3cc(C(F)(F)F)ccc3n2CCN(C)C)cc1 [Compound 26] | 1.5 | – | >3.37 | > 100 µM | – | – | – | – | Antileishmanial activity in words [1]: moderately active
4 | 21.1 ± 5.84 µM | 0.84 | – | 32.7 ± 3.92 µM | 0.64 | CCN(CC)CCCn1c(-c2ccc(OC)cc2)nc2cc(C(F)(F)F)ccc21 [Compound 27] | 2.1 | >3 | >4.74 | > 100 µM | – | – | – | 1.0 | Antileishmanial activity in words [1]: moderately active
5 | 12.1 ± 4.06 µM | 1.46 | – | 15.9 ± 3.21 µM | 1.32 | CC(=O)c1ccc2c(c1)nc(Cc1ccc(Cl)cc1)n2C[C@@H]1CCCN2CCCC[C@H]12 [Compound 30] | 3.6 | >6.30 | >8.24 | > 100 µM | – | – | – | 2.0 | –
6 | 7.31 ± 2.75 µM | 2.42 | – | 12.1 ± 1.82 µM | 1.73 | FC(F)(F)c1ccc2c(c1)nc(-c1ccccc1)n2C[C@@H]1CCCN2CCCC[C@H]12 [Compound 35] | 5.9 | 7.44 | 12.3 | 90 µM | – | – | – | 2.6 | –
7 | 12.6 ± 4.54 µM | 0.69 | – | 12.5 ± 3.51 µM | 0.95 | FC(F)(F)c1ccc2c(c1)nc(-c1ccc(Cl)cc1)n2C[C@@H]1CCCN2CCCC[C@H]12 [Compound 36, N-lupinyl-5-trifluoromethyl-2-(4-chlorophenyl)benzimidazole] | 3.4 | 1.92 | 1.90 | 24 µM | – | – | – | 2.5 | –
8 | 13.5 ± 2.21 µM | 1.31 | – | 17.4 ± 1.49 µM | 1.20 | Oc1ccc(-c2nc3cc(C(F)(F)F)ccc3n2C[C@@H]2CCCN3CCCC[C@H]23)cc1 [Compound 37] | 3.2 | 4.49 | 5.76 | 78 µM | – | – | – | 1.8 | –
9 | 6.54 ± 0.18 µM | 2.71 | – | 11.2 ± 1.33 µM | 1.86 | COc1ccc(-c2nc3cc(C(F)(F)F)ccc3n2C[C@@H]2CCCN3CCCC[C@H]23)cc1 [Compound 38] | 6.6 | 6.68 | 11.47 | 75 µM | – | – | – | 2.8 | –

More lines, now with the values behind:

Row | SMILES | IC50 [1, 9] | IC50 amph. B ×100/IC50 compd., L. tropica [1, 11] | melting point | IC50 ([4]; promastigotes, MTT) | IC50 amph. B ×100/IC50 compd., L. infantum [4, 11] | Ratio IC50 miltef./IC50 compd., L. tropica [1, 10] | SI L. infantum (IC50 Vero76/IC50 L. infantum) ([2]; selectivity index, Vero76) | SI L. tropica (IC50 Vero76/IC50 L. tropica) ([2]; selectivity index, Vero76) | IC50 [3] | IC50 [5] | SI L. infantum (IC50 HMEC-1/IC50 L. infantum) [5] | SI L. tropica (IC50 HMEC-1/IC50 L. tropica) [5] | Ratio IC50 miltef./IC50 compd., L. infantum [4, 10] | other results
10 | CCCCCCCCCCCc1n(C)c2ccccc2[n+]1CCC.[I-] [Compound 4, 1-Methyl-3-propyl-2-undecyl-1 H-benzimidazol-3-ium iodide] | 0.46 µM | 17.9 | 140.2 to 145 °C | 0.27 ± 0.01 µM | – | 94.0 | 9.63 | 5.65 | 2.6 µM | 2.01 ± 0.24 µM | 7.44 | 4.37 | – | Fold more potent than miltefosine against L. infantum, taking the lowest literature IC50 (15 μM) [4]: 55 fold; Selectivity index (SI) range versus HMEC cells [5]: 2.3–7.4
11 | CCCCCCCCCCCCCCCc1n(C)c2ccccc2[n+]1C.[I-] [Compound 8, 1,3-Dimethyl-2-pentadecyl-1 H-benzimidazol-3-ium iodide] | 0.19 ± 0.06 µM | – | 169 to 172 °C | 0.34 ± 0.12 µM | 27.8 | – | – | – | 5.8 µM | 0.78 ± 0.06 µM | 2.29 | 4.10 | – | Fold increased potency with respect to miltefosine, amastigotes ([6]; L. infantum amastigotes in THP-1): 3.35 fold; IC50 ([6]; Leishmania infantum, THP-1 macrophages, 72 h, read-out: IC50 against intramacrophagic amastigote stage of L. infantum): 0.313 µM; Fold more potent than miltefosine against L. infantum, taking the lowest literature IC50 (15 μM) [4]: 43 fold; Selectivity index (SI) range versus HMEC cells [5]: 2.3–7.4
12 | CCCCCCCCCCCCCCCc1n(C)c2ccccc2[n+]1CCC.[I-] [Compound 12, 1-Methyl-2-pentadecyl-3-propyl-1H-benzimidazol-3-ium iodide] | 0.51 µM | 16.1 | 144.7 to 147.4 °C | 0.42 ± 0.14 µM | 37.1 | 84.8 | – | – | – | 0.73 ± 0.37 µM | 1.74 | 1.43 | 74.4 | –
13 | CCCCCCCCCCCCCCCc1n(Cc2ccccc2)c2ccccc2[n+]1Cc1ccccc1.[Cl-] [Compound 15, 1,3-Dibenzyl-2-pentadecyl-1 H-benzimidazol-3-ium chloride] | 1.61 ± 0.15 µM | 5.1 | 214.9 to 216.3 °C | 3.26 ± 0.8 µM | 2.9 | 26.9 | – | – | – | 0.94 ± 0.17 µM | 0.29 | 0.60 | 9.6 | –
14 | CCCC(CCC)c1nc2ccccc2[nH]1 [Compound 18, 2-(Heptan-4-yl)-1 H-benzimidazole] | 11.1 ± 2.73 µM | 1.07 | 224.7 to 225.8 °C | > 39.6 µM | – | 3.9 | – | – | – | 65.1 ± 12.2 µM | – | 5.87 | – | –
15 | O=[N+]([O-])c1ccc2c(c1)nc(Cc1ccccc1)n2C[C@@H]1CCCN2CCCC[C@H]12 [Compound 32] | – | – | – | – | – | – | – | – | – | – | – | – | – | IC50 [7]: 50 µM; IC50 amph. B ×100/IC50 compd., L. tropica [1]: 1.43; Ratio IC50 miltef./IC50 compd., L. tropica [1]: 6.0; IC50 [1]: 7.22 ± 3.13 µM; SI L. infantum (IC50 Vero76/IC50 L. infantum) [2]: 5.23; SI L. tropica (IC50 Vero76/IC50 L. tropica) [2]: 6.93; IC50 amph. B ×100/IC50 compd., L. infantum [4]: 1.24; Ratio IC50 miltef./IC50 compd., L. infantum [4]: 3.3; IC50 [4]: 9.55 ± 3.11 µM
16 | O=[N+]([O-])c1ccc2c(c1)nc(Cc1ccc(Cl)cc1)n2C[C@@H]1CCCN2CCCC[C@H]12 [Compound 33] | – | – | – | – | – | – | – | – | – | – | – | – | – | IC50 [7]: 68 µM; IC50 amph. B ×100/IC50 compd., L. tropica [1]: 2.63; Ratio IC50 miltef./IC50 compd., L. tropica [1]: 11.0; IC50 [1]: 3.92 ± 1.43 µM; SI L. infantum (IC50 Vero76/IC50 L. infantum) [2]: 9.97; SI L. tropica (IC50 Vero76/IC50 L. tropica) [2]: 17.35; IC50 amph. B ×100/IC50 compd., L. infantum [4]: 1.73; Ratio IC50 miltef./IC50 compd., L. infantum [4]: 4.6; IC50 [4]: 6.82 ± 1.25 µM
17 | COc1ccc(Cc2nc3cc([N+](=O)[O-])ccc3n2C[C@@H]2CCCN3CCCC[C@H]23)cc1 [Compound 34] | – | – | – | – | – | – | – | – | – | – | – | – | – | IC50 [7]: 49 µM; IC50 amph. B ×100/IC50 compd., L. tropica [1]: 2.99; Ratio IC50 miltef./IC50 compd., L. tropica [1]: 12.6; IC50 [1]: 3.44 ± 1.43 µM; SI L. infantum (IC50 Vero76/IC50 L. infantum) [2]: 7.33; SI L. tropica (IC50 Vero76/IC50 L. tropica) [2]: 14.24; IC50 amph. B ×100/IC50 compd., L. infantum [4]: 1.77; Ratio IC50 miltef./IC50 compd., L. infantum [4]: 4.7; IC50 [4]: 6.68 ± 1.74 µM
18 | CCCCCCCCCCCCCCCCOP(=O)([O-])OCC[N+](C)(C)C [Miltefosine, miltefosine, reference compound] | 43 µM | 0.26 | – | 31.3 ± 10.4 µM | 0.27 | 1.0 | – | – | – | 99.8 µM | 3.2 | – | 1.0 | IC50 ([8]; ref 6c): 16.7 µM; IC50 ([8]; ref 11a): 15 µM; IC50 ([8]; ref 13b): 19.6 µM
